The experiment concerns the target T1, human TRPC6 (Homo sapiens, UniProt Q9Y210).
T1 construct: expressed in transfected cells
T1 sequence (Q9Y210 1-931): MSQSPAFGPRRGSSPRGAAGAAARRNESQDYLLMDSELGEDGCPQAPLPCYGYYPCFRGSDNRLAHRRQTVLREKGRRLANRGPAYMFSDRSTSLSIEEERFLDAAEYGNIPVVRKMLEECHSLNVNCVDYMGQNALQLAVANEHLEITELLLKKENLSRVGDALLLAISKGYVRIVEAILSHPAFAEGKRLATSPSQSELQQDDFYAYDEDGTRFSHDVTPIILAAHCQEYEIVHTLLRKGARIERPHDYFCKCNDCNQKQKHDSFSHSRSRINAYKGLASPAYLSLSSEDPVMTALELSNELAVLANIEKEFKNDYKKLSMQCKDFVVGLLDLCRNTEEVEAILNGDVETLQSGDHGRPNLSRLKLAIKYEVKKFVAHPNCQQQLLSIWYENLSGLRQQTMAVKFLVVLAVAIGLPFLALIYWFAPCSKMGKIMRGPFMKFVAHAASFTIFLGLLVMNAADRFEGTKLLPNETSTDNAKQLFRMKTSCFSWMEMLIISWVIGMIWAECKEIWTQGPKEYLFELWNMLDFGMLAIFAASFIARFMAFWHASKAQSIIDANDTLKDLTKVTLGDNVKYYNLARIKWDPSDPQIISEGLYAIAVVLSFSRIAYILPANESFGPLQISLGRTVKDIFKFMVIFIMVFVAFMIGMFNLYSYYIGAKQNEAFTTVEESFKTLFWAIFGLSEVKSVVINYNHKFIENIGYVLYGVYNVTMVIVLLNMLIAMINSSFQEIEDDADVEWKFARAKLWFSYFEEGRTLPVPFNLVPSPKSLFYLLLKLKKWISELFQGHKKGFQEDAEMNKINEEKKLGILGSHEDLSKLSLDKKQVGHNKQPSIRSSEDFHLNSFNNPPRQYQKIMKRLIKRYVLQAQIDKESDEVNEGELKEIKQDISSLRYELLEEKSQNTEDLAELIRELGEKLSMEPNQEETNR
The experiment in a line: TRPC6 calcium flux assay (FLIPR, OAG-stimulated calcium influx). It is filed as cell-based. Particulars: HEK293 cells stably transfected with human TRPC6, read-out: hTRPC6 Potency. A digest of the protocol: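 HEK293 cells stably expressing human TRPC6, loaded with calcium dye 90–120 min at RT, then given compound for 25 min before OAG (50 uM final, 0.5% DMSO) in HEPES buffer pH 7.2 with 2 mM CaCl2. Background-subtracted FLIPR peak over 180 s normalized to OAG vs buffer; IC50 from dose plot.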
For orientation: Calcium assays in cells follow changes in intracellular calcium, usually with a dye or a luminescent sensor.
Take `N[C@@H]1CN(c2nc3cc(F)c(F)cc3n2CC(=O)N2CC(F)(F)C2)CC[C@H]1F` [Example 428, 2-(2-((3R,4R)-3-amino-4-fluoropiperidin-1-yl)-5,6-difluoro-1H-benzo[d]imidazol-1-yl)-1-(3,3-difluoroazetidin-1-yl)ethanone]: the IC50 amounted to 18.3 nM. The value for `CC(C)C1CN(C(=O)Cn2c(N3CC[C@@H](F)[C@H](N)C3)nc3cc(F)c(F)cc32)C1` [Example 429, 2-(2-((3R,4R)-3-amino-4-fluoropiperidin-1-yl)-5,6-difluoro-1H-benzo[d]imidazol-1-yl)-1-(3-isopropylazetidin-1-yl)ethanone] was over 3750 nM; that for `N[C@@H]1CN(c2nc3cc(F)c(F)cc3n2CC(=O)N2CC3(C2)CC(F)(F)C3)CC[C@H]1F` [Example 430, 2-(2-((3R,4R)-3-amino-4-fluoropiperidin-1-yl)-5,6-difluoro-1H-benzo[d]imidazol-1-yl)-1-(6,6-difluoro-2-azaspiro[3.3]heptan-2-yl)ethanone] was 880 nM. Consider `N[C@@H]1CN(c2nc3cc(F)c(F)cc3n2CC(=O)N2CC3(CCOCC3)C2)CC[C@H]1F` [Example 431, 2-(2-((3R,4R)-3-amino-4-fluoropiperidin-1-yl)-5,6-difluoro-1H-benzo[d]imidazol-1-yl)-1-(7-oxa-2-azaspiro[3.5]nonan-2-yl)ethanone], for which the IC50 was over 3750 nM.

Regarding `CN[C@@H]1CN(c2nc3ccc(F)cc3n2Cc2ccc(C#N)cn2)CCC1(F)F` [Example 432, (R)-6-((2-(4,4-difluoro-3-(methylamino)piperidin-1-yl)-6-fluoro-1H-benzo[d]imidazol-1-yl)methyl)nicotinonitrile], the IC50 turned out to be 7.77 nM. With `N#Cc1ccc(Cn2c(N3CCC(F)(F)[C@H](NCCO)C3)nc3ccc(F)cc32)nc1` [Example 433, (R)-6-((2-(4,4-difluoro-3-((2-hydroxyethyl)amino)piperidin-1-yl)-6-fluoro-1H-benzo[d]imidazol-1-yl)methyl)nicotinonitrile], the IC50 was over 3750 nM. As for `N[C@H]1CCCN(c2nc3ccccc3n2Cc2ccc(C(=O)O)cn2)C1` [Example 434, (S)-6-((2-(3-aminopiperidin-1-yl)-1H-benzo[d]imidazol-1-yl)methyl)nicotinic acid], the figure is over 3750 nM. Turning to `NC(=O)c1ccc(Cn2c(N3CC[C@@H](F)[C@H](N)C3)nc3ccccc32)nc1` [Example 436, 6-((2-((3R,4R)-3-amino-4-fluoropiperidin-1-yl)-1H-benzo[d]imidazol-1-yl)methyl)nicotinamide], the IC50 was 52.4 nM.

Take `N[C@@H]1CN(c2nc3cc(F)c(F)cc3n2CC(=O)O)CC[C@H]1F` [Example 437, 2-(2-((3R,4R)-3-amino-4-fluoropiperidin-1-yl)-5,6-difluoro-1H-benzo[d]imidazol-1-yl)acetic acid]: the IC50 was over 3750 nM. The value for `N#Cc1cnc(Cn2c(N3CC[C@@H](F)[C@H](N)C3)nc3ccc(F)cc32)nc1` [Example 442, 2-((2-((3R,4R)-3-amino-4-fluoropiperidin-1-yl)-6-fluoro-1H-benzo[d]imidazol-1-yl)methyl)pyrimidine-5-carbonitrile] was 0.319 nM. The value for `N#Cc1cnc(Cn2c(N3CC[C@@H](F)[C@H](N)C3)nc3cc(F)ccc32)nc1` [Example 443, 2-((2-((3R,4R)-3-amino-4-fluoropiperidin-1-yl)-5-fluoro-1H-benzo[d]imidazol-1-yl)methyl)pyrimidine-5-carbonitrile] was 0.471 nM; that for `COc1cnc(Cn2c(N3CC[C@@H](F)[C@H](N)C3)nc3ccc(F)cc32)nc1` [Example 444, (3R,4R)-4-fluoro-1-(6-fluoro-1-((5-methoxypyrimidin-2-yl)methyl)-1H-benzo[d]imidazol-2-yl)piperidin-3-amine] was 4.42 nM. The value for `CN(CC(F)(F)F)C(=O)Cn1c(N2CC[C@@H](F)[C@H](N)C2)nc2ccc(F)cc21` [Example 445, 2-(2-((3R,4R)-3-amino-4-fluoropiperidin-1-yl)-6-fluoro-1H-benzo[d]imidazol-1-yl)-N-methyl-N-(2,2,2-trifluoroethyl)acetamide] was 20.8 nM; that for `COc1cnc(Cn2c(N3CC[C@@H](F)[C@H](N)C3)nc3cc(F)ccc32)nc1` [Example 446, (3R,4R)-4-fluoro-1-(5-fluoro-1-((5-methoxypyrimidin-2-yl)methyl)-1H-benzo[d]imidazol-2-yl)piperidin-3-amine] was 34 nM. For `CN(CC(F)(F)F)C(=O)Cn1c(N2CC[C@@H](F)[C@H](N)C2)nc2c(C#N)cc(F)cc21` [Example 447, 2-(2-((3R,4R)-3-amino-4-fluoropiperidin-1-yl)-4-cyano-6-fluoro-1H-benzo[d]imidazol-1-yl)-N-methyl-N-(2,2,2-trifluoroethyl)acetamide], the IC50 came to 119 nM. The value for `COc1ccc2nc(N3CC[C@@H](F)[C@H](N)C3)n(CC(=O)N(C)C)c2c1` [Example 448, 2-(2-((3R,4R)-3-amino-4-fluoropiperidin-1-yl)-6-methoxy-1H-benzo[d]imidazol-1-yl)-N,N-dimethylacetamide] was 123 nM; that for `COc1ccc2c(c1)nc(N1CC[C@@H](F)[C@H](N)C1)n2CC(=O)N(C)CC(F)(F)F` [Example 449, 2-(2-((3R,4R)-3-amino-4-fluoropiperidin-1-yl)-5-methoxy-1H-benzo[d]imidazol-1-yl)-N-methyl-N-(2,2,2-trifluoroethyl)acetamide] was 1160 nM. The value for `COc1ccc2c(c1)nc(N1CC[C@@H](F)[C@H](N)C1)n2CC(=O)N(C)C` [Example 450, 2-(2-((3R,4R)-3-amino-4-fluoropiperidin-1-yl)-5-methoxy-1H-benzo[d]imidazol-1-yl)-N,N-dimethylacetamide] was over 3750 nM. As for `CO[C@@H]1CCN(c2nc3ccc(F)cc3n2Cc2ccc(C#N)cn2)C[C@H]1N` [Example 451], the IC50 is 0.613 nM. On to `COc1cc(F)cc2c1nc(N1CC[C@@H](F)[C@H](N)C1)n2Cc1ccc(C#N)cn1` [Example 452, 6-((2-((3R,4R)-3-amino-4-fluoropiperidin-1-yl)-6-fluoro-4-methoxy-1H-benzo[d]imidazol-1-yl)methyl)nicotinonitrile], for which the IC50 came out at 1.17 nM.

As to `N#Cc1ccc(Cn2c(N3CC[C@@H](F)[C@H](N)C3)nc3ccc(C(F)(F)F)nc32)nc1` [Example 453, 6-((2-((3R,4R)-3-amino-4-fluoropiperidin-1-yl)-5-(trifluoromethyl)-3H-imidazo[4,5-b]pyridin-3-yl)methyl)nicotinonitrile], the IC50 was determined as 1.51 nM.

As for `CO[C@@H]1CCN(c2nc3ccc(F)cc3n2Cc2ncc(Cl)cn2)C[C@H]1N` [Example 454, (3R,4R)-1-(1-((5-chloropyrimidin-2-yl)methyl)-6-fluoro-1H-benzo[d]imidazol-2-yl)-4-methoxypiperidin-3-amine], the IC50 stood at 1.52 nM. As for `N[C@@H]1CN(c2nc3ccc(Br)cc3n2CC(=O)N2CCC2)CC[C@H]1F` [Example 455, 2-(2-((3R,4R)-3-amino-4-fluoropiperidin-1-yl)-6-bromo-1H-benzo[d]imidazol-1-yl)-1-(azetidin-1-yl)ethan-1-one], the figure is 6.56 nM.

As for `CN(CC(F)(F)F)C(=O)Cn1c(N2CC[C@@H](F)[C@H](N)C2)nc2ccc(F)cc21` [Example 457, 2-(2-((3R,4R)-3-amino-4-fluoropiperidin-1-yl)-6-fluoro-1H-benzo[d]imidazol-1-yl)-N-methyl-N-(2,2,2-trifluoroethyl)acetamide], the IC50 came out at 13.3 nM.

Turning to `N#Cc1ccc(Cn2c(N3CC[C@@H](F)[C@H](N)C3)nc3nc(C(F)(F)F)ccc32)nc1` [Example 458, 6-((2-((3R,4R)-3-amino-4-fluoropiperidin-1-yl)-5-(trifluoromethyl)-1H-imidazo[4,5-b]pyridin-1-yl)methyl)nicotinonitrile], the IC50 is 16.3 nM. As for `N[C@@H]1CN(c2nc3ccc(C(F)(F)F)cc3n2CC(=O)N2CCOCC2)CC[C@H]1F` [Example 459, 2-(2-((3R,4R)-3-amino-4-fluoropiperidin-1-yl)-6-(trifluoromethyl)-1H-benzo[d]imidazol-1-yl)-1-morpholinoethan-1-one], the figure is 16.4 nM. The value for `CN(CC(F)(F)F)C(=O)Cn1c(N2CC[C@@H](F)[C@H](N)C2)nc2cc(F)ccc21` [Example 460, 2-(2-((3R,4R)-3-amino-4-fluoropiperidin-1-yl)-5-fluoro-1H-benzo[d]imidazol-1-yl)-N-methyl-N-(2,2,2-trifluoroethyl)acetamide] was 24.2 nM.

The record behind these values is patent US11332459B2 (TEIJIN PHARMA LIMITED, priority 2017, dated 2022).
